Measurements reported in the supplement of paper PMC10307832.

Legend:
Assay in all cases: relative viability (nuclei count vs DMSO), 5 days (fraction); higher = more cells survive
IPA-3 + Navitoclax = compound: C1=CC=C2C(=C1)C=CC(=C2SSC3=C(C=CC4=CC=CC=C43)O)O [IPA-3] + CC1(C)CCC(c2ccc(Cl)cc2)=C(CN2CCN(c3ccc(C(=O)NS(=O)(=O)c4ccc(N[C@H](CCN5CCOCC5)CSc5ccccc5)c(S(=O)(=O)C(F)(F)F)c4)cc3)CC2)C1 [Navitoclax] (partner 0.5 µM)
Procedure, shortened: (§1)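 Lung cancer cell lines were seeded in 1536-well plates and dosed by pin tool the next day, with either a single drug or a fixed anchor-drug dose combined with five library-drug doses (not always all listed) spaced in √10 steps. Five days later, one step fixed the cells and stained their nuclei (final 0.05% Triton X-100, 1% formaldehyde, 1 ug/ml Hoechst), and nuclei were counted on 4× images. Relative viability is the nuclei count in treated wells divided by the count in vehicle wells, and each value is the median of duplicate plates.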

IPA-3 + Vorinostat = compound: C1=CC=C2C(=C1)C=CC(=C2SSC3=C(C=CC4=CC=CC=C43)O)O [IPA-3] + O=C(CCCCCCC(=O)Nc1ccccc1)NO [Vorinostat] (partner 1 µM)
Procedure, shortened: as §1

Doramapimod + Vorinostat = compound: Cc1ccc(-n2nc(C(C)(C)C)cc2NC(=O)Nc2ccc(OCCN3CCOCC3)c3ccccc23)cc1 [Doramapimod] + O=C(CCCCCCC(=O)Nc1ccccc1)NO [Vorinostat] (partner 1 µM)
Procedure, shortened: as §1

Row | Cell Line | relative viability (IPA-3 + Navitoclax; first compound 0.2 µM) | relative viability (IPA-3 + Navitoclax; first compound 0.6325 µM) | relative viability (IPA-3 + Navitoclax; first compound 2 µM) | relative viability (IPA-3 + Navitoclax; first compound 6.325 µM) | relative viability (IPA-3 + Navitoclax; first compound 20 µM) | relative viability (IPA-3 + Vorinostat; first compound 0.2 µM) | relative viability (IPA-3 + Vorinostat; first compound 0.6325 µM) | relative viability (IPA-3 + Vorinostat; first compound 2 µM) | relative viability (IPA-3 + Vorinostat; first compound 6.325 µM) | relative viability (IPA-3 + Vorinostat; first compound 20 µM) | relative viability (Doramapimod + Vorinostat; first compound 0.02 µM) | relative viability (Doramapimod + Vorinostat; first compound 0.06325 µM) | relative viability (Doramapimod + Vorinostat; first compound 0.2 µM) | relative viability (Doramapimod + Vorinostat; first compound 0.6325 µM) | relative viability (Doramapimod + Vorinostat; first compound 2 µM)
1 | NCI-H1437 | 1.16 | 0.997 | 1.19 | 1.02 | 1.15 | 0.863 | 0.644 | 0.691 | 0.783 | 0.826 | 0.789 | 0.912 | 0.836 | 0.855 | 0.688
2 | NCI-H1650 | 1.37 | 1.26 | 1.12 | 1.09 | 1.34 | 1.02 | 0.47 | 0.531 | 0.555 | 0.729 | 0.571 | 0.586 | 0.553 | 0.729 | 0.528
3 | NCI-H1651 | 1.06 | – | 0.998 | 1.1 | 1.19 | 0.608 | 0.612 | 0.61 | 0.645 | 0.592 | 0.514 | 0.604 | 0.602 | 0.623 | 0.552
4 | NCI-H1666 | 1.07 | 0.981 | 1.08 | 0.962 | 0.863 | 1.07 | 1.06 | 1.07 | 1.04 | 1.03 | 1.05 | 0.986 | 1.03 | 1.14 | 0.944
5 | NCI-H1734 | 1.1 | 0.834 | 0.781 | 0.844 | 1.02 | 0.922 | 0.761 | 0.799 | 0.726 | 0.638 | 0.705 | 0.739 | 0.665 | 0.94 | 0.621
6 | NCI-H1755 | 1.07 | 1.01 | 1 | 1.03 | 1.02 | 0.863 | 0.61 | 0.694 | 0.63 | 0.704 | 0.798 | 0.748 | 0.619 | 0.768 | 0.687
7 | NCI-H1793 | 0.518 | 0.37 | 0.395 | 0.44 | 0.594 | 1.12 | 0.714 | 0.64 | 0.712 | 0.687 | 0.718 | 0.708 | 0.673 | 0.749 | 0.519
